Source: PMC11787452, “Substrate and inhibitor specificity of Plasmodium nucleoside transporters ENT1 orthologs” (The Journal of Biological Chemistry, 2024)
“And” between values parts separate entries of the source, which are not always exact repeats. Equal entries are not always repeated. Where two headings read alike, the source gives them in different places.

Columns and labels:
PfENT1 = target: T1, PfENT1 (Plasmodium falciparum, UniProt Q8IDM6); test: ITC binding to PfENT1; details: for Kd: 25 °C, 25 mM MES pH 6.0, 150 mM NaCl, 0.05% DDM
T1 construct: 10xHis (N); made in house; host or cells: Sf9 insect cells (baculovirus)
T1 sequence (Q8IDM6 whole entry): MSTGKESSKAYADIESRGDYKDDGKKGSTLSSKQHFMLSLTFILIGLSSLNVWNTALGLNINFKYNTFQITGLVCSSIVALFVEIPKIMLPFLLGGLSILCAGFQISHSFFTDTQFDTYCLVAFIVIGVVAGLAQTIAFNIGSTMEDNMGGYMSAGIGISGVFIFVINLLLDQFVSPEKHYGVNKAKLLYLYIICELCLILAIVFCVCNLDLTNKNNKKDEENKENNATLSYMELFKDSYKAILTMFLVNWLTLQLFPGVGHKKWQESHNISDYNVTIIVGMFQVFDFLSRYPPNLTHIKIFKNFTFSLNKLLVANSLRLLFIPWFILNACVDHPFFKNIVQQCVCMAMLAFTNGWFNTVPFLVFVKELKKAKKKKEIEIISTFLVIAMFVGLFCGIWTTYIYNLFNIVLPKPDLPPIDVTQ
Protocol: (§1) All the constructs were subcloned and inserted into a modified pFastBac with an N-terminal 10 × His tag. The baculovirus was generated in DH10Bac for recombinant protein expression. After 72 h of infection, Sf9 insect cells were harvested. For structural determination of the PfENT1 protein, Sf9 cells were solubilized in buffer containing 25 mM MES (pH 6.0), 150 mM NaCl, 2% (w/v) n-dodecyl-β-D-maltopyranoside (DDM), and protease inhibitor cocktail (0.8 μM aprotinin, 2 μM pepstatin, and 5 μg/ml leupeptin) at 4 °C for 2 h. After centrifugation at 18,000 rpm for 45 min at 4 °C, the detergent-soluble supernatant was collected via centrifugation at 4 °C for 60 min and incubated with Ni-NTA resin (QIAGEN) at 4 °C for 20 min. The resin was further washed with 25 mM MES pH 6.0, 150 mM NaCl, 10 mM imidazole, and 0.05% (w/v) DDM and eluted with buffer containing 25 mM MES pH 6.0, 150 mM NaCl, 300 mM imidazole, and 0.05% (w/v) DDM. The protein was further purified via size-exclusion chromatography (Superdex 200 Increase 10/300; GE Healthcare) in buffer containing 25 mM MES (pH 6.0), 150 mM NaCl, and 0.05% (w/v) DDM. The peak fractions were pooled and concentrated to 10∼50 μM for the nucleoside-binding assay. The protein purification of the bacterial nucleoside transporter NupG was performed as described in previous studies ([35]).
(§2) […] binding to ENTs was measured at 25 °C via a MicroCal PEAQ-ITC. The purified ENT protein was concentrated to 25 to 50 μM for ITC experiments. The nucleoside was diluted to 5 mM via the same buffer employed for protein purification, which consisted of 25 mM MES (pH 6.0), 150 mM NaCl, and 0.05% DDM. The inhibitor was diluted to 250 μM via the same buffer employed for protein purification, which consisted of 25 mM MES (pH 6.0), 150 mM NaCl, and 0.05% DDM. All the titrations were repeated three times.

PvENT1 = target: T2, PvENT1 (Plasmodium vivax, UniProt A5K8B0); test: ITC binding to PvENT1; details: for Kd: 25 °C, 25 mM MES pH 6.0, 150 mM NaCl, 0.05% DDM, read-out: Kd (binding affinity for PvENT1)
T2 construct: 10xHis (N); made in house; host or cells: Sf9 insect cells (baculovirus)
T2 sequence (A5K8B0 1-416): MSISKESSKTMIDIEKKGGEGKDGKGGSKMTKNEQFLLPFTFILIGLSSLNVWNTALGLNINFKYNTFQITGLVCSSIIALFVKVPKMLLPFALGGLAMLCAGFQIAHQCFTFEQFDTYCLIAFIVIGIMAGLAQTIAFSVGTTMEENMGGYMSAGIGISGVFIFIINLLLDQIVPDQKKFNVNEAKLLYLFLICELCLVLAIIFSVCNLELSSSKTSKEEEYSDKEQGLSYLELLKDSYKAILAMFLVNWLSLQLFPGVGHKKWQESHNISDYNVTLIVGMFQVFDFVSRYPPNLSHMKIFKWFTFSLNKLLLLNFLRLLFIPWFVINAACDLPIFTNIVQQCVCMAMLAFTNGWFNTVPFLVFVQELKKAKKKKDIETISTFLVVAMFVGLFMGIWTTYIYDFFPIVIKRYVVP
Protocol: as §1, §2

PbENT1 = target: T3, PbENT1 (Plasmodium berghei, UniProt A0A509AYF4); test: ITC binding to PbENT1; details: for Kd: 25 °C, 25 mM MES pH 6.0, 150 mM NaCl, 0.05% DDM, read-out: Kd (binding affinity for PbENT1)
T3 construct: 10xHis (N); made in house; host or cells: Sf9 insect cells (baculovirus)
T3 sequence (A0A509AYF4 1-412): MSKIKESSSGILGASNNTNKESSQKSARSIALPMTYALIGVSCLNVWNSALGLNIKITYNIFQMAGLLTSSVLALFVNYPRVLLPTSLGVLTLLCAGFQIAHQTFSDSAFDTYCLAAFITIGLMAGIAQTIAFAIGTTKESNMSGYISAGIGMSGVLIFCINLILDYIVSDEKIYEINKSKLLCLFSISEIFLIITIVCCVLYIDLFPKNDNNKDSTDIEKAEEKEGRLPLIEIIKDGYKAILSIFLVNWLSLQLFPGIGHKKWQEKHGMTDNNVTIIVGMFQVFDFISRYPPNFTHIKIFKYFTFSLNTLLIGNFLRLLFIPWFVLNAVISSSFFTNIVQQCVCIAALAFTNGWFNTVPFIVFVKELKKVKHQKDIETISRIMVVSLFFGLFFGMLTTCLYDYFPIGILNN
Protocol: as §1, §2

PfENT1I70M = target: T4, PfENT1I70M (Plasmodium falciparum, UniProt Q8IDM6, I70M); test: ITC binding to PfENT1I70M
T4 construct: 10xHis (N); made in house; host or cells: Sf9 insect cells (baculovirus)
T4 sequence (Q8IDM6 1-422 I70M): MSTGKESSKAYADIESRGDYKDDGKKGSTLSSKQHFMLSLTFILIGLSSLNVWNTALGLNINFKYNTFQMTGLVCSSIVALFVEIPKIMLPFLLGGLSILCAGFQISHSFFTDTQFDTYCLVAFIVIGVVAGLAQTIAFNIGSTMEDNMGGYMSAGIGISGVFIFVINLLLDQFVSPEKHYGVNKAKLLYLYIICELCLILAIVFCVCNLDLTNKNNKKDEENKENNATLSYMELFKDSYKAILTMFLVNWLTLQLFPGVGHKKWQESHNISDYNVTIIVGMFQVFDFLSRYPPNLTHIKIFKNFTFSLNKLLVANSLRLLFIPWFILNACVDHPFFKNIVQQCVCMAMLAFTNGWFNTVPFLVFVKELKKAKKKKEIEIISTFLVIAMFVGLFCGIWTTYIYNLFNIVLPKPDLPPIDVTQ
Protocol: as §1, with “The protein purification of the bacterial nucleoside transporter NupG was performed as described in previous studies ([35]).” left out
(§3) […] binding to ENTs was measured at 25 °C via a MicroCal PEAQ-ITC. […]

PfENT1S49C = target: T5, PfENT1S49C (Plasmodium falciparum, UniProt Q8IDM6, S49C); test: ITC binding to PfENT1S49C
T5 construct: 10xHis (N); made in house; host or cells: Sf9 insect cells (baculovirus)
T5 sequence (Q8IDM6 whole entry S49C): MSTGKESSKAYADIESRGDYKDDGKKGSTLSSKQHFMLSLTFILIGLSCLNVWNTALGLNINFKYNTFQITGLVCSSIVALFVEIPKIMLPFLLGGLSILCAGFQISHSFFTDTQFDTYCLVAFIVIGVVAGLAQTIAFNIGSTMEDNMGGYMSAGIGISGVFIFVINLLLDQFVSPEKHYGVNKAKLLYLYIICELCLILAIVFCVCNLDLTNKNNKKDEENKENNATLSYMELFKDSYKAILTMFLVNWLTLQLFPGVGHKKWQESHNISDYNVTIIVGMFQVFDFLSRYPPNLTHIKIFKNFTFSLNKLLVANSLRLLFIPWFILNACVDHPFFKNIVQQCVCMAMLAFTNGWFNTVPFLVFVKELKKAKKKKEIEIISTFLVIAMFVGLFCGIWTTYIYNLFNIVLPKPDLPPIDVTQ
Protocol: as §1, with “The protein purification of the bacterial nucleoside transporter NupG was performed as described in previous studies ([35]).” left out
as §3

PbENT1M64I = target: T6, PbENT1M64I (Plasmodium berghei, UniProt A0A509AYF4, M64I); test: ITC binding to PbENT1M64I
T6 construct: 10xHis (N); made in house; host or cells: Sf9 insect cells (baculovirus)
T6 sequence (A0A509AYF4 whole entry M64I): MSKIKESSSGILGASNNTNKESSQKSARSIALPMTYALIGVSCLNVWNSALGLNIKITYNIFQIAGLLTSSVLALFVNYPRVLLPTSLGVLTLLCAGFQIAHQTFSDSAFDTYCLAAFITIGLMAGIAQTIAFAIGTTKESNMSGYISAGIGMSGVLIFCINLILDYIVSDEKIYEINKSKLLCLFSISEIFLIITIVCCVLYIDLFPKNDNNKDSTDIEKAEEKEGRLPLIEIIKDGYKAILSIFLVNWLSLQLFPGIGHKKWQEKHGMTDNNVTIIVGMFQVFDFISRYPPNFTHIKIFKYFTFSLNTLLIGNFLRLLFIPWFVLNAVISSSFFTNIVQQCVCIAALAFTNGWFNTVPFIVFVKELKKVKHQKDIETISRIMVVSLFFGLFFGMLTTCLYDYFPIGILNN
Protocol: as §1, with “The protein purification of the bacterial nucleoside transporter NupG was performed as described in previous studies ([35]).” left out
as §3

PbENT1C43S = target: T7, PbENT1C43S (Plasmodium berghei, UniProt A0A509AYF4, C43S); test: ITC binding to PbENT1C43S
T7 construct: 10xHis (N); made in house; host or cells: Sf9 insect cells (baculovirus)
T7 sequence (A0A509AYF4 whole entry C43S): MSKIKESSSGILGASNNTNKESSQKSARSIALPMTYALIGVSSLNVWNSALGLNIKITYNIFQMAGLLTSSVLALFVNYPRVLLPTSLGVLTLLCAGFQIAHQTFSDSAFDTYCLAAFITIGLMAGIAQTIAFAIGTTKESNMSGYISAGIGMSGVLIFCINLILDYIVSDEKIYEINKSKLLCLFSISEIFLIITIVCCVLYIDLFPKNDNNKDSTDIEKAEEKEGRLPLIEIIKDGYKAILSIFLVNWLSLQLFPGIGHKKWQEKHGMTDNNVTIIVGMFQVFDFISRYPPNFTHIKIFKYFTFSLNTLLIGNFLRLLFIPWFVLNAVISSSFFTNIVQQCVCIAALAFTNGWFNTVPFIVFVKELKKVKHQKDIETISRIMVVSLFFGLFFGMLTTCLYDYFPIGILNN
Protocol: as §1, §2

PfENT1M389L = target: T8, PfENT1M389L (Plasmodium falciparum, UniProt Q8IDM6, M389L); test: ITC binding to PfENT1M389L
T8 construct: 10xHis (N); made in house; host or cells: Sf9 insect cells (baculovirus)
T8 sequence (Q8IDM6 whole entry M389L): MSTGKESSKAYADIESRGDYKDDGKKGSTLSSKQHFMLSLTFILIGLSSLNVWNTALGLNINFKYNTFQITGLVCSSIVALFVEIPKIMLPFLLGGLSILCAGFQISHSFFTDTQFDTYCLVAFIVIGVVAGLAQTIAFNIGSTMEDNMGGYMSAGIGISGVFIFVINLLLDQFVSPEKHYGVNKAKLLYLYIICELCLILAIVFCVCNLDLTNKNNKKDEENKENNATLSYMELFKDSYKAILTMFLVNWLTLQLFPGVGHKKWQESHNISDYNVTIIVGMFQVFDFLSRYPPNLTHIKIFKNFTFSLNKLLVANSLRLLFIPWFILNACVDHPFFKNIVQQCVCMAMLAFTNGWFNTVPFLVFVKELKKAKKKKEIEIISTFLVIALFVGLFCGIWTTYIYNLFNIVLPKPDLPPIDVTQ
Protocol: as §1, §2

[1] = target: T9, bacterial nucleoside transporter NupG (Escherichia coli, UniProt P0AFF4); test: ITC binding to NupG
T9 construct: made in house
T9 sequence (P0AFF4 1-418): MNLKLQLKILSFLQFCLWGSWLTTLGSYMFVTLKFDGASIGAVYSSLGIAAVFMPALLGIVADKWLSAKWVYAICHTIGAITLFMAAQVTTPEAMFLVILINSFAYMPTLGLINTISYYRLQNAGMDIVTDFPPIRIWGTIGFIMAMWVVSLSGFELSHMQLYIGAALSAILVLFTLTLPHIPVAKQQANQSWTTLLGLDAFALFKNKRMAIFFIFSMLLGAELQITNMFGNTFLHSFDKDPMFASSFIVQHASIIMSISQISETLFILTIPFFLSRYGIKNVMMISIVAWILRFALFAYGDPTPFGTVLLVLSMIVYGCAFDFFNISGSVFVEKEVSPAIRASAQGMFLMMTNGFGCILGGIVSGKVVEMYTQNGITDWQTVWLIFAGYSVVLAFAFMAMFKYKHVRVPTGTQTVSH
Protocol: as §1, with “The protein purification of the bacterial nucleoside transporter NupG was performed as described in previous studies ([35]).” left out
as §3

HepG2 cells = test: Cytotoxicity assay (Cell Counting Kit-8) on HepG2 cells; format: cell-based; details: 1.5 to 400 μM, 48 h, compared with GSK4, GSK4-1, GSK4-2
Protocol: (§4) HepG2 and 293T cells were obtained from ATCC and cultured in Dulbecco’s modified Eagle’s medium supplemented with 10% fetal bovine serum and 1% penicillin-streptomycin (Gibco). Cells were maintained at 37 °C in a humidified atmosphere containing 5% CO2. Cells were seeded at a density of 5 × 10^3 cells per well in 96-well plates and allowed to adhere for 24 h before treatment. Cells were treated with the test compounds at concentrations ranging from 1.5 to 400 μM for 48 h. Control wells were treated with an equivalent concentration of DMSO (vehicle control). Cell viability was assessed using the Cell Counting Kit-8. After 48 h of treatment, 10 μl of Cell Counting Kit-8 solution was added to each well, and the plates were incubated for 2 h at 37 °C. The absorbance was measured at 450 nm using a microplate reader. Cell viability was expressed as a percentage of the control group, and IC50 values were calculated using nonlinear regression analysis (GraphPad Prism 8.0). Data are presented as mean ± SD from three independent experiments, each performed in triplicate.

293T cells = test: Cytotoxicity assay (Cell Counting Kit-8) on 293T cells; format: cell-based; details: 1.5 to 400 μM, 48 h, compared with GSK4, GSK4-1, GSK4-2
Protocol: as §4

[2] = read-out: Kd (binding affinity for PfENT1)

O=c1[nH]cnc2c1ncn2[C@@H]1O[C@H](CO)[C@@H](O)[C@H]1O [inosine]
thermodynamic pattern of binding to PfENT1 (PfENT1): entropy-driven
Kd (PfENT1; [2]): 77.3 µM
ΔH of binding to PfENT1 (PfENT1; endothermic reaction): > 0
thermodynamic pattern of binding to PvENT1 (PvENT1): enthalpy-entropy compensation
ΔH of binding to PvENT1 (PvENT1; exothermic reaction): < 0
thermodynamic pattern of binding to PbENT1 (PbENT1): enthalpy-driven
ΔH of binding to PbENT1 (PbENT1; exothermic reaction): < 0
affinity for PfENT1I70M (in words) (PfENT1I70M; compared with PfENT1): comparable affinity
binding to PfENT1S49C (in words) (PfENT1S49C): complete abolishment
binding affinity of PbENT1M64I relative to WT PbENT1 (PbENT1M64I): fivefold lower
binding affinity of PbENT1C43S relative to WT PbENT1 (PbENT1C43S): fivefold lower

OC[C@H]1O[C@@H](n2cnc3c(O)ncnc32)[C@H](O)[C@@H]1O [inosine]
Kd (PfENT1; [2]): ~64.2 µM
Kd (PvENT1): ~146 µM and 146 µM and 161 µM and 173 µM
Kd (PbENT1): 13.6 µM and 6.11 µM and 13.5 µM
Kd (PfENT1I70M; 25 °C, pH 6.0): 58.3 µM and 78.5 µM and 65.3 µM
Kd (PbENT1M64I; Kd (binding to PbENT1M64I), 25 °C, pH 6.0): 61.6 µM and 53.5 µM and 58.9 µM
Kd (PbENT1C43S; Kd (binding to PbENT1C43S), 25 °C, pH 6.0): 51.4 µM and 55.9 µM and 58.4 µM

Cc1oc(-c2ccccc2Cl)nc1C(=O)NCCN1CCCCCC1=O [GSK4-2]
decrease in binding affinity for PfENT1 (versus GSK4) (PfENT1): 1.6 fold

Cc1oc(-c2ccc(Cl)cc2)nc1C(=O)NCCN1CCCCCC1=O [GSK4-1]
decrease in binding affinity for PfENT1 (versus GSK4) (PfENT1): 3.5 fold

O=C(NCCN1CCCCCC1=O)c1nc(-c2ccccc2)oc1C1CC1 [GSK4-3]
Kd (PfENT1; [2]): 0.0219 µM and 0.0134 µM and 0.0164 µM
binding affinity for PvENT1 (in words) (PvENT1): comparable binding
Kd (PvENT1): 0.0572 µM and 0.0376 µM and 0.0308 µM
binding affinity for PbENT1 (in words) (PbENT1): negligible binding
increase in binding affinity for PfENT1M389L compared with parent compound GSK4 (PfENT1M389L): 6 fold
Kd (PfENT1M389L; Kd (binding to PfENT1M389L), 25 °C, pH 6.0): 0.0444 µM
binding to NupG (in words) [1]: cannot bind
cytotoxicity (in words) (HepG2 cells): lower cytotoxicity
cytotoxicity (in words) (293T cells): lower cytotoxicity

Nc1nc2c(ncn2[C@@H]2O[C@H](CO)[C@@H](O)[C@H]2O)c(=O)[nH]1 [guanosine]
Kd (PfENT1; Kd (binding affinity for PfENT1)): ~179 µM
Kd (PvENT1): ~49.3 µM and 49.3 µM and 50.5 µM and 46.3 µM
Kd (PbENT1): 15.6 µM and 8.69 µM and 11.3 µM
